Laboratory results from patent US9394284B2, “Compounds act at multiple prostaglandin receptors giving a general anti-inflammatory response” (Allergan, Inc., priority 2010, dated 2016).

Key:
Type in all cases: cell-based
[1] = biological target: T1, human prostanoid EP3 receptor (Homo sapiens, UniProt P43115); assay: FLIPR Ca2+ signaling antagonist assay, EP3 receptor stable cell line; details: HEK-293 EBNA stable cell line; standard agonist PGE2; NA = inactive (no antagonism or Kb 10,000 nM); PAg, Ag not defined
T1 construct: expressed in transfected cells
T1 sequence (P43115 1-390): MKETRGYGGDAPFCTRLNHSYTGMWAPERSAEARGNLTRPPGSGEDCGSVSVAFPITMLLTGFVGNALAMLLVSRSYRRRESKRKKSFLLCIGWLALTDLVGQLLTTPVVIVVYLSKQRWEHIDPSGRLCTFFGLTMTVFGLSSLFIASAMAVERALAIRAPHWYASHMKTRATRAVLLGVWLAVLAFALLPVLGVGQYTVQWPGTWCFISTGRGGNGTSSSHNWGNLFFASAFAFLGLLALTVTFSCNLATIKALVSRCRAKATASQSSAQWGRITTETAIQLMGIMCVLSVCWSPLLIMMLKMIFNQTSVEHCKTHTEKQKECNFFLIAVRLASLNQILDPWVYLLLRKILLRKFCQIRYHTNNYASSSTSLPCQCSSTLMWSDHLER
Experimental: The above compounds were tested for PG antagonist activity as follows using human recombinant prostanoid receptor (DP1, EP1-4, FP, IP and TP) stable cell lines:
In order to measure the response of Gs and Gi coupled prostanoid receptors as a Ca^2+ signal, chimeric G protein cDNAs were used. Stable cell lines over-expressing human prostanoid DP1, EP1-4, FP, IP, and TP receptors were established as follows:
Briefly, human prostanoid DP1, EP2, and EP4 receptor cDNAs were co-transfected with chimeric Gqs cDNA containing a haemagglutanin (HA) epitope; human prostanoid EP3 receptors were co-transfected with chimeric Gqi-HA; human EP1, FP, IP, and TP receptor cDNAs were expressed with no exogenous G-proteins. Gqs and Gqi chimeric cDNAs (Molecular Devices, Sunnyvale, Calif., U.S.A.), as well as cDNAs of prostanoid receptors, were cloned into a pCEP4 vector with a hygromycin B selection marker. Transfection into HEK-293 EBNA (Epstein-Barr virus nuclear antigen) cells was achieved by the FuGENE 6 transfection Reagent (Roche Applied Science, Indianapolis, Ind., USA). Stable transfectants were selected according to hygromycin resistance. Because Gqs and Gqi contained an HA epitope, G-protein expression was detected by Western blotting analysis using anti-mouse HA monoclonal antibody and horseradish peroxidase (HRP)-conjugated secondary antibody, while functional expression of prostanoid receptors was detected by FLIPR screening (Matias et al., 2004). These stable cell lines were validated using previously published antagonists at 10 μM against serial dilutions of standard agonists by FLIPR functional assays for Ca^2+ Signaling (as described below).
Ca^2+ signaling studies were performed using a FLIPR TETRA system (Molecular Devices, Sunnyvale, Calif., USA) in the 384-format. This is a high-throughput instrument for cell-based assays to monitor Ca^2+ signaling associated with GPCRs and ion channels. Cells were seeded at a density of 5×10^4 cells/well in BioCoat poly-D-lysine coated, black wall, clear bottom 384-well plates (BD Biosciences, Franklin lakes, NJ, USA) and allowed to attach overnight in an incubator at 37° C. The cells were then washed twice with HBSS-HEPES buffer (Hanks' balanced salt solution without bicarbonate and phenol red, 20 mM HEPES, pH 7.4) using an ELx405 Select CW Microplate Washer (BioTek, Winooski, Vt., USA). After 60 min of dye-loading in the dark using the Ca^2+-sensitive dye Fluo-4AM (Invitrogen, Carlsbad, Calif., USA), at a final concentration of 2×10^−6M, the plates were washed 4 times with HBSS-HEPES buffer to remove excess dye and leaving 50 μl of buffer in each well. The plates were then placed in the FLIPR TETRA instrument and allowed to equilibrate at 37° C. AGN-211377 was added in a 25 μl volume to each well to give final concentrations of 0.1 μM, 0.3 μM, 1 μM, 3 μM, 10 μM, and 30 μM; or 0.067 μM, 0.1 μM, 0.2 μM, 0.3 μM, 0.67 μM, and 1 μM for cells over-expressing TP receptors. After 4.5 minutes, a 7-point serial dilution of the standard agonist for the corresponding receptor, in a 25 μl volume was injected at the final concentrations from 10^−11M to 10^−5M in 10-fold serial dilution increments for cells expressing human recombinant DP1, EP1, EP2, EP3, EP4, FP, and IP receptors. The dose range for the standard agonist for human recombinant TP receptors was from 10^−12 M to 10^−6 M. HBSS-HEPES buffer was used as the negative control for the standard agonists. Cells were excited with LED (light emitting diode) excitation at 470-495 nm and emission was measured through an emission filter at 515-575 nm. Assay plates were read for 3.5 minutes using the FLIPR^TETRA. The peak increase in fluorescence intensity was recorded for each well. On each plate, negative controls, dose response of positive controls, and co-treatments of antagonist-agonist for each dose were in triplicates.
Standard agonists were as follows: DP=BW 245C, EP1-EP4=PGE2, FP=17-phenyl-PGF2α, IP=Cicaprost, and TP=U-46619. […]

[2] = biological target: T2, human prostanoid IP receptor (Homo sapiens, UniProt P43119); assay: FLIPR Ca2+ signaling antagonist assay, IP receptor stable cell line; details: HEK-293 EBNA stable cell line; standard agonist Cicaprost; NA = inactive (no antagonism or Kb 10,000 nM); PAg, Ag not defined
T2 construct: expressed in transfected cells
T2 sequence (P43119 whole entry): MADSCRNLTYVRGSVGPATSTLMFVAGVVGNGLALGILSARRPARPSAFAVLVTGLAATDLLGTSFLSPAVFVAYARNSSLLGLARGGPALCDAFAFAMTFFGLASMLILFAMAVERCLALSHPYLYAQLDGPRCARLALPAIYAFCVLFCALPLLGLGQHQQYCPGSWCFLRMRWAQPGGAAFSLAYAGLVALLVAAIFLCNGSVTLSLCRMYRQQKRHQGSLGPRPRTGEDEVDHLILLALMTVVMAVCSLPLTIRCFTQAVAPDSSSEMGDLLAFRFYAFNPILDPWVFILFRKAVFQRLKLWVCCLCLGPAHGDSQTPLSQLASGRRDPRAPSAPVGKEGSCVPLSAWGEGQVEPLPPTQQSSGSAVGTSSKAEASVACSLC
Outline: (§1)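 HEK-293 EBNA cells stably expressing receptor (EP3 co-expressed with chimeric Gqi; EP1, IP, TP without exogenous G protein), Fluo-4 loaded, read on FLIPR at 37° C. Antagonist added 4.5 min before standard agonist (EP1/EP3 PGE2, IP cicaprost 10^−11–10^−5 M; TP U-46619 10^−12–10^−6 M); antagonist 0.1–30 μM, TP 0.067–1 μM; peak fluorescence relative to 10^−6 M agonist.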

[3] = biological target: T3, human prostanoid EP1 receptor (Homo sapiens, UniProt P34995); assay: FLIPR Ca2+ signaling antagonist assay, EP1 receptor stable cell line; details: HEK-293 EBNA stable cell line; standard agonist PGE2; NA = inactive (no antagonism or Kb 10,000 nM); PAg, Ag not defined
T3 construct: expressed in transfected cells
T3 sequence (P34995 1-402): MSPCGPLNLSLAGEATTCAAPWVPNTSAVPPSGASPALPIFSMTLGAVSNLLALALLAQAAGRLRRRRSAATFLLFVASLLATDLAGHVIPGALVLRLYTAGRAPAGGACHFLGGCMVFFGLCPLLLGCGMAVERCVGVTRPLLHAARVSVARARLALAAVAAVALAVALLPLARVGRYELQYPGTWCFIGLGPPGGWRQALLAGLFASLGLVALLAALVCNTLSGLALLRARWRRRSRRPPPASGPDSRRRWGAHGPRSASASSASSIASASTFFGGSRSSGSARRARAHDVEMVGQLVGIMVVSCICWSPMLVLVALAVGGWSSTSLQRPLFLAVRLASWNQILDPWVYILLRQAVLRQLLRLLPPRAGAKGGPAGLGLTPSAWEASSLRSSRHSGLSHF
Outline: as §1

Row | Structure (SMILES) | Kb [1] [µM] | Kb [2] [µM] | Kb [3] [µM] | EP1 (FLIPR) Kb [3]
1 | CCC(CC)COc1ccc(Cl)cc1Cn1nc(CC(C)C(=O)O)cc1C (racemic) [Example 68, 3-{1-[5-Chloro-2-(2-ethyl-butoxy)-benzyl]-5-methyl-1H-pyrazol-3-yl}-2-methyl-propionic acid] | 5.2 | 5.7 | 0.07 | –
2 | CCCCC(CC)COc1ccc(Br)cc1Cn1nc(CCC(=O)O)cc1C (stereo not drawn) [Example 6, 3-[1-(5-Bromo-2-(2-ethyl-hexyloxy)-benzyl)-5-methyl-1H-pyrazol-3-yl]-propionic acid] | 8.8 | 1.8 | 0.38 | –
3 | CCCC(C)COc1ccc(Br)cc1Cn1nc(CCC(=O)O)cc1C (stereo not drawn) [Example 8, 3-[1-(5-Bromo-2-(2-methyl-pentyloxy)-benzyl)-5-methyl-1H-pyrazol-3-yl]-propionic acid] | 6.4 | 1.7 | 0.04 | –
4 | CCC(CC)COc1ccc(Br)cc1Cn1nc(CCC(=O)NS(=O)(=O)C(F)(F)F)cc1C [Example 17, N-(3-{1-[5-Bromo-2-(2-ethyl-butoxy)-benzyl]-5-methyl-1H-pyrazol-3-yl}-propionyl)-C,C,C-trifluoro-methanesulfonamide] | 1 | 2.7 | 0.015 | –
5 | Cc1cc(CCC(=O)NS(=O)(=O)C(F)(F)F)nn1Cc1cc(Br)ccc1OCC(C)C [Example 19, N-(3-{1-[5-Bromo-2-isobutoxybenzyl]-5-methyl-1H-pyrazol-3-yl}-propionyl)-C,C,C-trifluoro-methanesulfonamide] | 0.7 | 1.4 | 0.014 | –

The next lines start with the values.

Row | Kb [1] [µM] | Kb [2] [µM] | Kb [3] [µM] | EP1 (FLIPR) Kb [3] | Structure (SMILES)
6 | 8.3 | 8.8 | 0.03 | – | Cc1cc(CCC(=O)O)nn1Cc1cc(Br)ccc1OCC1(C(F)(F)F)CCC1 [Example 13, 3-[1-(5-Bromo-2-(1-trifluoromethylcyclobutylmethoxy)-benzyl)-5-methyl-1H-pyrazol-3-yl]-propionic acid]
7 | 2.5 | 1 | 0.05 | – | Cc1cc(CCC(=O)NS(=O)(=O)c2ccccc2)nn1Cc1cc(Cl)ccc1OCc1ccc(Cl)cc1 [Example 24, N-(3-[1-(5-Chloro-2-(4-chlorobenzyloxy)benzyl)-5-methyl-1H-pyrazol-3-yl]-propionyl)benzenesulfonamide]
8 | 4.5 | 7.9 | 0.006 | – | Cc1cc(CCC(=O)NS(=O)(=O)CC(F)(F)F)nn1Cc1cc(Cl)ccc1OCc1ccc(Cl)cc1 [Example 25, 2,2,2-trifluoroethanesulfonic acid-(3-[1-(5-Chloro-2-(4-chlorobenzyloxy)benzyl)-5-methyl-1H-pyrazol-3-yl]-propionyl)amide]
9 | 7.1 | 1 | 0.003 | – | Cc1cc(CCC(=O)O)nn1Cc1cc(Cl)ccc1OCc1ccc(Cl)cc1Cl [Example 26, 3-[1-(5-Chloro-2-(2,4-dichlorobenzyloxy)benzyl)-5-methyl-1H-pyrazol-3-yl]-propionic acid]
10 | 0.5 | 0.4 | – | PAg | Cc1cc(CCC(=O)NS(=O)(=O)C(F)(F)F)nn1Cc1cc(Cl)ccc1OCc1ccc(Cl)cc1Cl [Example 27, N-(3-[1-(5-Chloro-2-(2,4-dichlorobenzyloxy)benzyl)-5-methyl-1H-pyrazol-3-yl]-propionyl)C,C,C-trifluoromethanesulfonamide]
11 | 5.4 | 3.7 | 0.1 | – | Cc1cc(CCC(=O)O)nn1Cc1cc(Cl)ccc1OCC(C)(C)C [Example 35, 3-[1-(5-Chloro-2-(2,2-dimethylropoxy)benzyl)-5-methyl-1H-pyrazol-3-yl]-propionic acid]
12 | 5.7 | 0.72 | 0.2 | – | Cc1cc(CCC(=O)O)nn1Cc1cc(Cl)ccc1OCCCC(C)C [Example 40, 3-[1-(5-Chloro-2-(4-methylpentyloxy)benzyl)-5-methyl-1H-pyrazol-3-yl]-propionic acid]
